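Five compound concentrations were applied to cells in 96-well plates for 48 hours; endpoints were derived by simple linear interpolation of the resulting dose-response curve. GI50 = concentration required for 50% inhibition of growth.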 Activity calls are given as the source filed them. Rule as the data show it: active = GI50 up to about 1.1 µM and inactive = higher.
Experiments:
Test in all cases: NCI tumour cell line growth inhibition, 48 h
K562 = test system: K562
UACC-257 = test system: UACC-257
RPMI-8226 = test system: RPMI-8226
MCF7 = test system: MCF7
TK-10 = test system: TK-10
OVCAR-3 = test system: OVCAR-3
MDA-N = test system: MDA-N
LOX IMVI = test system: LOX IMVI
HCT-15 = test system: HCT-15
OVCAR-8 = test system: OVCAR-8
CAKI-1 = test system: CAKI-1
HT-29 = test system: HT-29
Hs-578T = test system: Hs-578T
SK-OV-3 = test system: SK-OV-3
OVCAR-5 = test system: OVCAR-5
SK-MEL-28 = test system: SK-MEL-28
SF-295 = test system: SF-295
HOP-92 = test system: HOP-92
PC-3 = test system: PC-3
HCC 2998 = test system: HCC 2998
SW-620 = test system: SW-620
HCT-116 = test system: HCT-116
EKVX = test system: EKVX
IGROV-1 = test system: IGROV-1
SNB-75 = test system: SNB-75
M14 = test system: M14
MOLT-4 = test system: MOLT-4
SNB-19 = test system: SNB-19
Malme-3M = test system: Malme-3M
SK-MEL-5 = test system: SK-MEL-5
786-0 = test system: 786-0
A549 = test system: A549
NCI-H460 = test system: NCI-H460
HOP-62 = test system: HOP-62
SR = test system: SR
ACHN = test system: ACHN
COLO 205 = test system: COLO 205
UO-31 = test system: UO-31
NCI-H23 = test system: NCI-H23
SF-539 = test system: SF-539
UACC-62 = test system: UACC-62
NCI/ADR-RES = test system: NCI/ADR-RES
KM12 = test system: KM12
CCRF-CEM = test system: CCRF-CEM
SF-268 = test system: SF-268
SN12C = test system: SN12C
U-251 = test system: U-251
MDA-MB-231 = test system: MDA-MB-231
SK-MEL-2 = test system: SK-MEL-2
HL-60 = test system: HL-60
OVCAR-4 = test system: OVCAR-4
DU-145 = test system: DU-145
RXF 393 = test system: RXF 393
MDA-MB-435 = test system: MDA-MB-435

How did the GI50 (K562) turn out when `CCOC(=O)NC(C(=O)OCC)C(F)(F)F` (stereo not drawn) was run?
Its GI50 is > 100 µM (inactive).

And the GI50 (UACC-257)?
The GI50 was > 100 µM (inactive).

And the GI50 (RPMI-8226)?
Its GI50 is 57 µM (inactive).

What about the GI50 (MCF7) of the same compound?
The GI50 was > 100 µM (inactive).

And the GI50 (TK-10)?
Its GI50 is > 100 µM (inactive).

And the GI50 (OVCAR-3)?
Its GI50 is > 100 µM (inactive).

What about the GI50 (MDA-N) of the same compound?
Its GI50 is > 100 µM (inactive).

And the GI50 (LOX IMVI)?
Its GI50 is 76.6 µM (inactive).

And the GI50 (HCT-15)?
Its GI50 is greater than 100 µM.

And the GI50 (OVCAR-8)?
The GI50 was > 100 µM (inactive).

What about the GI50 (CAKI-1) of the same compound?
Its GI50 is > 100 µM (inactive).

And the GI50 (HT-29)?
The GI50 was > 100 µM (inactive).

And the GI50 (Hs-578T)?
The GI50 was > 100 µM (inactive).

And the GI50 (SK-OV-3)?
Its GI50 is > 100 µM (inactive).

And the GI50 (OVCAR-5)?
Its GI50 is > 100 µM (inactive).

And the GI50 (SK-MEL-28)?
The GI50 was > 100 µM (inactive).

What about the GI50 (SF-295) of the same compound?
The GI50 was > 100 µM (inactive).

And the GI50 (HOP-92)?
Its GI50 is 71.4 µM (inactive).

What about the GI50 (PC-3) of the same compound?
The GI50 was > 100 µM (inactive).

What about the GI50 (HCC 2998) of the same compound?
Its GI50 is > 100 µM (inactive).

What about the GI50 (SW-620) of the same compound?
The GI50 was > 100 µM (inactive).

And the GI50 (HCT-116)?
The GI50 was > 100 µM (inactive).

And the GI50 (EKVX)?
The GI50 was > 100 µM (inactive).

And the GI50 (IGROV-1)?
The GI50 was > 100 µM (inactive).

And the GI50 (SNB-75)?
The GI50 was > 100 µM (inactive).

What about the GI50 (M14) of the same compound?
The GI50 was > 100 µM (inactive).

What about the GI50 (MOLT-4) of the same compound?
Its GI50 is 93.8 µM (inactive).

What about the GI50 (SNB-19) of the same compound?
The GI50 was > 100 µM (inactive).

What about the GI50 (Malme-3M) of the same compound?
The GI50 was > 100 µM (inactive).

And the GI50 (SK-MEL-5)?
The GI50 was > 100 µM (inactive).

What about the GI50 (786-0) of the same compound?
Its GI50 is > 100 µM (inactive).

And the GI50 (A549)?
The GI50 was > 100 µM (inactive).

What about the GI50 (NCI-H460) of the same compound?
Its GI50 is > 100 µM (inactive).

What about the GI50 (HOP-62) of the same compound?
The GI50 was > 100 µM (inactive).

What about the GI50 (SR) of the same compound?
Its GI50 is 48.4 µM (inactive).

And the GI50 (ACHN)?
Its GI50 is > 100 µM (inactive).

What about the GI50 (COLO 205) of the same compound?
Its GI50 is > 100 µM (inactive).

What about the GI50 (UO-31) of the same compound?
Its GI50 is > 100 µM (inactive).

And the GI50 (NCI-H23)?
Its GI50 is > 100 µM (inactive).

And the GI50 (SF-539)?
Its GI50 is 37.4 µM (inactive).

And the GI50 (UACC-62)?
Its GI50 is > 10 µM (inactive).

What about the GI50 (NCI/ADR-RES) of the same compound?
The GI50 was > 100 µM (inactive).

And the GI50 (KM12)?
The GI50 was > 100 µM (inactive).

What about the GI50 (CCRF-CEM) of the same compound?
The GI50 was 40.6 µM (inactive).

And the GI50 (SF-268)?
The GI50 was > 100 µM (inactive).

And the GI50 (SN12C)?
Its GI50 is > 100 µM (inactive).

What about the GI50 (U-251) of the same compound?
The GI50 was > 100 µM (inactive).

What about the GI50 (MDA-MB-231) of the same compound?
The GI50 was > 100 µM (inactive).

And the GI50 (SK-MEL-2)?
The GI50 was > 100 µM (inactive).

And the GI50 (HL-60)?
The GI50 was 23.9 µM (inactive).

Which results are given for `O=C(O)CNc1ncc2c(n1)-c1ccccc1OC2`?
GI50 (OVCAR-4): > 100 µM (inactive); GI50 (K562): > 100 µM (inactive); GI50 (UACC-257): > 100 µM (inactive); GI50 (RPMI-8226): > 100 µM (inactive); GI50 (MCF7): > 100 µM (inactive); GI50 (TK-10): > 100 µM (inactive); GI50 (OVCAR-3): > 100 µM (inactive); GI50 (MDA-N): > 100 µM (inactive); GI50 (LOX IMVI): > 100 µM (inactive); GI50 (HCT-15): > 100 µM; GI50 (DU-145): > 100 µM (inactive); GI50 (OVCAR-8): > 100 µM (inactive); GI50 (CAKI-1): > 100 µM (inactive); GI50 (HT-29): > 100 µM (inactive); GI50 (Hs-578T): > 100 µM (inactive); GI50 (SK-OV-3): > 100 µM (inactive); GI50 (OVCAR-5): > 100 µM (inactive); GI50 (SK-MEL-28): > 100 µM (inactive); GI50 (SF-295): > 100 µM (inactive); GI50 (RXF 393): > 100 µM (inactive); GI50 (HOP-92): > 100 µM (inactive); GI50 (PC-3): > 100 µM (inactive); GI50 (SW-620): > 100 µM (inactive); GI50 (HCT-116): > 100 µM (inactive); GI50 (EKVX): > 100 µM (inactive); GI50 (IGROV-1): > 100 µM (inactive); GI50 (MDA-MB-435): > 100 µM (inactive); GI50 (SNB-75): > 100 µM (inactive); GI50 (M14): > 100 µM (inactive); GI50 (MOLT-4): > 100 µM (inactive); GI50 (SNB-19): > 100 µM (inactive); GI50 (Malme-3M): > 100 µM (inactive); GI50 (SK-MEL-5): > 100 µM (inactive); GI50 (786-0): > 100 µM (inactive); GI50 (A549): > 100 µM (inactive); GI50 (NCI-H460): > 100 µM (inactive); GI50 (HOP-62): > 100 µM (inactive); GI50 (SR): > 100 µM (inactive); GI50 (ACHN): > 100 µM (inactive); GI50 (COLO 205): > 100 µM (inactive); GI50 (UO-31): > 100 µM (inactive); GI50 (NCI-H23): > 100 µM (inactive); GI50 (SF-539): > 100 µM (inactive); GI50 (UACC-62): > 100 µM (inactive); GI50 (NCI/ADR-RES): > 100 µM (inactive); GI50 (KM12): > 100 µM (inactive); GI50 (CCRF-CEM): > 100 µM (inactive); GI50 (SF-268): > 100 µM (inactive); GI50 (SN12C): > 100 µM (inactive); GI50 (U-251): > 100 µM (inactive); GI50 (MDA-MB-231): > 100 µM (inactive); GI50 (SK-MEL-2): > 100 µM (inactive); GI50 (HL-60): 64.3 µM (inactive)

— ChEMBL document CHEMBL1201862, “PubChem BioAssay data set” (2004)
